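Briefly, cells in 96-well plates were exposed to five compound concentrations for 48 h, and endpoints were estimated by linear interpolation. The concentration for full growth arrest is given as TGI.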
Assays:
Test in all cases: NCI anticancer screen, dose series, 48 h
[1] = tested on: MCF7 breast
[2] = tested on: COLO 205 colon
[3] = tested on: A498 renal
[4] = tested on: HL-60(TB) leukemia
[5] = tested on: SF-295 CNS
[6] = tested on: A549 NSCLC
[7] = tested on: MOLT-4 leukemia
[8] = tested on: MDA-MB-435
[9] = tested on: HS 578T breast
[10] = tested on: SK-MEL-2 melanoma
[11] = tested on: HCT-15 colon
[12] = tested on: KM12 colon
[13] = tested on: HCC-2998 colon
[14] = tested on: RXF 393 renal
[15] = tested on: SK-OV-3 ovarian
[16] = tested on: UACC-62 melanoma
[17] = tested on: BT-549 breast
[18] = tested on: OVCAR-3 ovarian
[19] = tested on: SNB-19 CNS
[20] = tested on: EKVX NSCLC
[21] = tested on: OVCAR-8 ovarian
[22] = tested on: HT29 colon
[23] = tested on: NCI-H23 lung
[24] = tested on: MDA-MB-231 breast
[25] = tested on: MDA-N
[26] = tested on: NCI-H460 lung
[27] = tested on: SN12C renal
[28] = tested on: 786-0 renal
[29] = tested on: OVCAR-5 ovarian
[30] = tested on: K-562 leukemia
[31] = tested on: SK-MEL-5 melanoma
[32] = tested on: IGROV1 ovarian
[33] = tested on: CAKI-1 renal
[34] = tested on: UO-31 renal
[35] = tested on: OVCAR-4 ovarian
[36] = tested on: NCI/ADR-RES ovarian
[37] = tested on: TK-10 renal
[38] = tested on: UACC-257 melanoma
[39] = tested on: HCT-116 colon
[40] = tested on: CCRF-CEM leukemia
[41] = tested on: MALME-3M melanoma
[42] = tested on: SNB-75 CNS
[43] = tested on: U251 CNS
[44] = tested on: LOX IMVI melanoma
[45] = tested on: HOP-92 NSCLC
[46] = tested on: M14 melanoma
[47] = tested on: SF-268 CNS
[48] = tested on: SW-620 colon
[49] = tested on: PC-3 prostate
[50] = tested on: HOP-62 NSCLC
[51] = tested on: T-47D breast
[52] = tested on: SF-539 CNS
[53] = tested on: DU-145 prostate
[54] = tested on: RPMI-8226 leukemia
[55] = tested on: SK-MEL-28 melanoma
[56] = tested on: ACHN renal
[57] = tested on: SR leukemia
[58] = tested on: NCI-H522 lung
[59] = tested on: NCI-H226 lung

With C/C(=N\Nc1nc2ccccc2[nH]1)c1cnccn1 the TGI [1] was > 66.8 µM, the TGI [2] was > 40.2 µM and the TGI [3] was 7.75 µM. For the same molecule, the TGI [4] was 0.429 µM, the TGI [5] was > 76.5 µM and the TGI [6] was > 40.5 µM. For the same molecule, the TGI [7] was > 100 µM, the TGI [8] was > 29.6 µM and the TGI [9] was > 100 µM. For the same molecule, the TGI [10] was 26 µM, the TGI [11] was > 100 µM and the TGI [12] was 22.4 µM. The TGI [13] was 59.8 µM, the TGI [14] was 4.81 µM and the TGI [15] was > 100 µM. For the same molecule, the TGI [16] was > 22.3 µM, the TGI [17] was > 85.3 µM and the TGI [18] was > 100 µM. The TGI [19] was > 100 µM, the TGI [20] was > 34.4 µM and the TGI [21] was > 93.3 µM. The TGI [22] was > 48 µM, the TGI [23] was > 30.7 µM and the TGI [24] was > 57.8 µM. For the same molecule, the TGI [25] was > 100 µM, the TGI [26] was > 100 µM and the TGI [27] was 12.4 µM. The TGI [28] was > 100 µM, the TGI [29] was > 100 µM and the TGI [30] was > 100 µM. The TGI [31] was 13.2 µM, the TGI [32] was > 38.4 µM and the TGI [33] was 14.9 µM. For the same molecule, the TGI [34] was > 27.2 µM, the TGI [35] was > 100 µM and the TGI [36] was 21.3 µM. For the same molecule, the TGI [37] was > 66.5 µM, the TGI [38] was > 31 µM and the TGI [39] was > 38 µM. For the same molecule, the TGI [40] was 6.75 µM, the TGI [41] was > 25.6 µM and the TGI [42] was > 53.9 µM. For the same molecule, the TGI [43] was > 59.5 µM, the TGI [44] was > 30.5 µM and the TGI [45] was 2.38 µM. For the same molecule, the TGI [46] was 4.66 µM, the TGI [47] was > 100 µM and the TGI [48] was > 66 µM. The TGI [49] was > 88.4 µM, the TGI [50] was > 100 µM and the TGI [51] was > 68.4 µM.

Molecule COc1ccc2c(c1)CCc1cc(OC)ccc1/[N+]([O-])=[N+]\2[O-] has a TGI [1] of 26.7 µM, a TGI [2] of 28.8 µM and a TGI [3] of 34.2 µM. For the same molecule, the TGI [4] was 27.6 µM, the TGI [52] was 44 µM and the TGI [5] was 37.6 µM. The TGI [6] was > 67.6 µM, the TGI [7] was 20.3 µM and the TGI [8] was 32.2 µM. The TGI [9] was > 59.8 µM, the TGI [53] was 38.1 µM and the TGI [10] was 43.8 µM. For the same molecule, the TGI [11] was 42.9 µM, the TGI [12] was 46 µM and the TGI [13] was 58.2 µM. It also gave a TGI [14] of 12.2 µM, a TGI [15] of 35.6 µM and a TGI [16] of 30.6 µM. The TGI [17] was 29.8 µM, the TGI [18] was 33.9 µM and the TGI [19] was 39 µM. For the same molecule, the TGI [20] was 42.5 µM, the TGI [21] was 33 µM and the TGI [22] was 45.2 µM. For the same molecule, the TGI [23] was 52.4 µM, the TGI [24] was 37 µM and the TGI [25] was 29.8 µM. For the same molecule, the TGI [26] was 39.9 µM, the TGI [27] was 31.6 µM and the TGI [54] was > 25.1 µM. It also gave a TGI [28] of 18.6 µM, a TGI [55] of 34.1 µM and a TGI [29] of 52.7 µM. For the same molecule, the TGI [30] was > 72.1 µM, the TGI [31] was 31.6 µM and the TGI [32] was 35 µM. For the same molecule, the TGI [33] was 34 µM, the TGI [34] was 25.9 µM and the TGI [36] was > 62 µM. For the same molecule, the TGI [37] was 45 µM, the TGI [56] was 26.3 µM and the TGI [38] was 35 µM. It also gave a TGI [40] of 5.74 µM, a TGI [41] of 38.5 µM and a TGI [42] of 33.3 µM. For the same molecule, the TGI [43] was 38.6 µM, the TGI [44] was 42.7 µM and the TGI [57] was > 42.7 µM. The TGI [45] was 27.2 µM, the TGI [58] was 13.7 µM and the TGI [46] was > 46.4 µM. The TGI [47] was 32.9 µM, the TGI [48] was 26.1 µM and the TGI [49] was 31.6 µM. For the same molecule, the TGI [50] was 52.8 µM and the TGI [51] was 49.1 µM.

With OCCCCn1cc(Cn2ncc3c(NCc4ccccc4)ncnc32)nn1 the TGI [1] was > 100 µM, the TGI [2] was > 100 µM and the TGI [3] was > 100 µM. For the same molecule, the TGI [59] was > 100 µM, the TGI [52] was > 100 µM and the TGI [5] was > 100 µM. For the same molecule, the TGI [6] was > 100 µM, the TGI [7] was > 100 µM and the TGI [8] was > 100 µM. For the same molecule, the TGI [9] was > 100 µM, the TGI [53] was > 100 µM and the TGI [10] was > 100 µM. For the same molecule, the TGI [11] was > 100 µM, the TGI [12] was > 100 µM and the TGI [13] was > 100 µM. For the same molecule, the TGI [14] was > 100 µM, the TGI [15] was > 100 µM and the TGI [16] was > 100 µM. The TGI [17] was > 100 µM, the TGI [18] was > 100 µM and the TGI [19] was > 100 µM. For the same molecule, the TGI [20] was > 100 µM, the TGI [21] was > 100 µM and the TGI [22] was > 100 µM. The TGI [23] was > 100 µM, the TGI [24] was > 100 µM and the TGI [25] was > 100 µM. For the same molecule, the TGI [26] was > 100 µM, the TGI [27] was > 100 µM and the TGI [54] was > 100 µM. For the same molecule, the TGI [28] was > 100 µM, the TGI [55] was > 100 µM and the TGI [29] was > 100 µM. For the same molecule, the TGI [30] was > 100 µM, the TGI [31] was > 100 µM and the TGI [32] was > 100 µM. For the same molecule, the TGI [33] was > 100 µM, the TGI [34] was > 100 µM and the TGI [35] was > 100 µM. The TGI [36] was > 100 µM, the TGI [37] was > 100 µM and the TGI [56] was > 100 µM. For the same molecule, the TGI [38] was > 100 µM, the TGI [39] was > 100 µM and the TGI [40] was > 100 µM. For the same molecule, the TGI [41] was > 100 µM, the TGI [43] was > 100 µM and the TGI [44] was > 100 µM. For the same molecule, the TGI [57] was > 100 µM, the TGI [45] was > 100 µM and the TGI [58] was > 100 µM. For the same molecule, the TGI [46] was > 100 µM, the TGI [47] was > 100 µM and the TGI [48] was > 100 µM. The TGI [49] was > 100 µM, the TGI [50] was > 100 µM and the TGI [51] was > 100 µM.

For CO[C@@]12C[C@@H](C)[C@]34O[C@H]3C[C@]3(C)O[C@]43CC1=C(C)C(=O)O2, the TGI [1] was > 100 µM, the TGI [2] was > 100 µM and the TGI [3] was > 100 µM. For the same molecule, the TGI [59] was > 100 µM, the TGI [52] was > 100 µM and the TGI [5] was > 100 µM. The TGI [6] was > 100 µM, the TGI [8] was > 100 µM and the TGI [9] was > 100 µM. The TGI [53] was > 100 µM, the TGI [10] was > 100 µM and the TGI [11] was > 100 µM. The TGI [12] was > 100 µM, the TGI [13] was > 100 µM and the TGI [15] was > 100 µM. For the same molecule, the TGI [16] was > 100 µM, the TGI [17] was > 100 µM and the TGI [18] was > 100 µM. The TGI [19] was > 100 µM, the TGI [20] was > 100 µM and the TGI [21] was > 100 µM. For the same molecule, the TGI [22] was > 100 µM, the TGI [23] was > 100 µM and the TGI [24] was > 100 µM. For the same molecule, the TGI [25] was > 100 µM, the TGI [26] was > 100 µM and the TGI [27] was > 100 µM. The TGI [54] was > 100 µM, the TGI [28] was > 100 µM and the TGI [55] was > 100 µM. For the same molecule, the TGI [29] was > 100 µM, the TGI [30] was > 100 µM and the TGI [31] was > 100 µM. The TGI [32] was > 100 µM, the TGI [33] was > 100 µM and the TGI [34] was > 100 µM. For the same molecule, the TGI [35] was > 100 µM, the TGI [36] was > 100 µM and the TGI [37] was > 100 µM. For the same molecule, the TGI [56] was > 100 µM, the TGI [38] was > 100 µM and the TGI [39] was > 100 µM. For the same molecule, the TGI [41] was > 100 µM, the TGI [43] was > 100 µM and the TGI [44] was > 100 µM. For the same molecule, the TGI [45] was > 100 µM, the TGI [58] was > 100 µM and the TGI [46] was > 100 µM. The TGI [47] was > 100 µM, the TGI [48] was > 100 µM and the TGI [49] was > 100 µM. The TGI [51] was > 100 µM.
